Each block holds one molecule with its values, some of them ahead of it. Ends that are not written are not given here.
Tests used:
[1] = cited from earlier work; for rate of electron transfer to heme from FMN: ref [49]; for interdomain electron transfer FMN to heme: laser flash photolysis, in the presence of CaM, ref [50], [51]
holo Alexa-CaM [2] = target: T1, holo Alexa-CaM (Homo sapiens, UniProt P0DP23, T111W/T35C); assay type: binding; details: 2 mM EDTA, stopped-flow
holo Alexa-CaM [3] = target: T1, holo Alexa-CaM; assay: Apparent Kd calculated as koff/kon; assay type: binding
holo Alexa-CaM [4] = target: T1, holo Alexa-CaM; assay: Stopped-flow association kinetics of NOS target peptides with holo Alexa-CaM; assay type: binding; details: pH 8
holo CaM = holo CaM to immobilized target peptide, ref [21]; cited from earlier work

Molecule: iNOS: inducible NOS
- rate of electron transfer to heme from FMN [1]: 11 s⁻¹

- fast phase, share of overall FW110 increase (holo Alexa-CaM [2]): 83%
Molecule: CC[C@H](C)[C@H](NC(=O)[C@H](CCCCN)NC(=O)[C@@H](NC(=O)[C@H](C)NC(=O)[C@H](CC(N)=O)NC(=O)[C@H](C)NC(=O)[C@@H](NC(=O)[C@H](CCC(=O)O)NC(=O)[C@H](CCCCN)NC(=O)[C@H](Cc1ccccc1)NC(=O)[C@@H](NC(=O)[C@H](CCCCN)NC(=O)[C@H](CCCCN)NC(=O)[C@@H](N)CCCNC(=N)N)[C@@H](C)O)C(C)C)C(C)C)C(=O)N[C@@H](CO)C(=O)N[C@@H](C)C(=O)N[C@@H](CO)C(=O)N[C@@H](CC(C)C)C(=O)N[C@@H](CCSC)C(=O)NCC(=O)O [eNOS492–511]

Molecule: human iNOS: human inducible NOS
- interdomain electron transfer FMN to heme [1]: 34 s⁻¹

Molecule: RRAIGFKKLAEAVKFSAKLMGGAM [nNOS726–749]
- fast phase, share of overall FW110 increase (holo Alexa-CaM [2]): 81%
- Kd (holo Alexa-CaM [3]): 5.6 nM
- kon (holo Alexa-CaM [4]): 6.6e+08 M⁻¹ s⁻¹

Molecule: rat nNOS: rat neuronal NOS in the presence of CaM
- interdomain electron transfer FMN to heme [1]: 36 s⁻¹

Molecule: eNOS: endothelial NOS
- rate of electron transfer to heme from FMN [1]: 2 to 5 s⁻¹

Molecule: nNOS725–750: immobilized nNOS target peptide of previous SPR study (NGTPTKRRAIGFKKLAEAVKFSAKLM; UniProt P29475 725-750, looked up, fragment)
- kon (binding rate by SPR) (holo CaM): 158000 M⁻¹ s⁻¹

B1: nNOS: neuronal NOS (protein, UniProt P29475 1-1434, looked up)
Nitric oxide synthase 1: MEDHMFGVQQIQPNVISVRLFKRKVGGLGFLVKERVSKPPVIISDLIRGGAAEQSGLIQAGDIILAVNGRPLVDLSYDSALEVLRGIASETHVVLILRGPEGFTTHLETTFTGDGTPKTIRVTQPLGPPTKAVDLSHQPPAGKEQPLAVDGASGPGNGPQHAYDDGQEAGSLPHANGLAPRPPGQDPAKKATRVSLQGRGENNELLKEIEPVLSLLTSGSRGVKGGAPAKAEMKDMGIQVDRDLDGKSHKPLPLGVENDRVFNDLWGKGNVPVVLNNPYSEKEQPPTSGKQSPTKNGSPSKCPRFLKVKNWETEVVLTDTLHLKSTLETGCTEYICMGSIMHPSQHARRPEDVRTKGQLFPLAKEFIDQYYSSIKRFGSKAHMERLEEVNKEIDTTSTYQLKDTELIYGAKHAWRNASRCVGRIQWSKLQVFDARDCTTAHGMFNYICNHVKYATNKGNLRSAITIFPQRTDGKHDFRVWNSQLIRYAGYKQPDGSTLGDPANVQFTEICIQQGWKPPRGRFDVLPLLLQANGNDPELFQIPPELVLEVPIRHPKFEWFKDLGLKWYGLPAVSNMLLEIGGLEFSACPFSGWYMGTEIGVRDYCDNSRYNILEEVAKKMNLDMRKTSSLWKDQALVEINIAVLYSFQSDKVTIVDHHSATESFIKHMENEYRCRGGCPADWVWIVPPMSGSITPVFHQEMLNYRLTPSFEYQPDPWNTHVWKGTNGTPTKRRAIGFKKLAEAVKFSAKLMGQAMAKRVKATILYATETGKSQAYAKTLCEIFKHAFDAKVMSMEEYDIVHLEHETLVLVVTSTFGNGDPPENGEKFGCALMEMRHPNSVQEERKSYKVRFNSVSSYSDSQKSSGDGPDLRDNFESAGPLANVRFSVFGLGSRAYPHFCAFGHAVDTLLEELGGERILKMREGDELCGQEEAFRTWAKKVFKAACDVFCVGDDVNIEKANNSLISNDRSWKRNKFRLTFVAEAPELTQGLSNVHKKRVSAARLLSRQNLQSPKSSRSTIFVRLHTNGSQELQYQPGDHLGVFPGNHEDLVNALIERLEDAPPVNQMVKVELLEERNTALGVISNWTDELRLPPCTIFQAFKYYLDITTPPTPLQLQQFASLATSEKEKQRLLVLSKGLQEYEEWKWGKNPTIVEVLEEFPSIQMPATLLLTQLSLLQPRYYSISSSPDMYPDEVHLTVAIVSYRTRDGEGPIHHGVCSSWLNRIQADELVPCFVRGAPSFHLPRNPQVPCILVGPGTGIAPFRSFWQQRQFDIQHKGMNPCPMVLVFGCRQSKIDHIYREETLQAKNKGVFRELYTAYSREPDKPKKYVQDILQEQLAESVYRALKEQGGHIYVCGDVTMAADVLKAIQRIMTQQGKLSAEDAGVFISRMRDDNRYHEDIFGVTLRTYEVTNRLRSESIAFIEESKKDTDEVFSS
- interdomain electron transfer FMN to heme in absence of CaM ([1]; absence of CaM, ref [51]): No such redox event was observed
- rate of electron transfer to heme from FMN [1]: 40 to 50 s⁻¹

B2: murine iNOS: murine inducible NOS (protein, UniProt P29477 1-1144, looked up)
Nitric oxide synthase, …: MACPWKFLFKVKSYQSDLKEEKDINNNVKKTPCAVLSPTIQDDPKSHQNGSPQLLTGTAQNVPESLDKLHVTSTRPQYVRIKNWGSGEILHDTLHHKATSDFTCKSKSCLGSIMNPKSLTRGPRDKPTPLEELLPHAIEFINQYYGSFKEAKIEEHLARLEAVTKEIETTGTYQLTLDELIFATKMAWRNAPRCIGRIQWSNLQVFDARNCSTAQEMFQHICRHILYATNNGNIRSAITVFPQRSDGKHDFRLWNSQLIRYAGYQMPDGTIRGDAATLEFTQLCIDLGWKPRYGRFDVLPLVLQADGQDPEVFEIPPDLVLEVTMEHPKYEWFQELGLKWYALPAVANMLLEVGGLEFPACPFNGWYMGTEIGVRDFCDTQRYNILEEVGRRMGLETHTLASLWKDRAVTEINVAVLHSFQKQNVTIMDHHTASESFMKHMQNEYRARGGCPADWIWLVPPVSGSITPVFHQEMLNYVLSPFYYYQIEPWKTHIWQNEKLRPRRREIRFRVLVKVVFFASMLMRKVMASRVRATVLFATETGKSEALARDLATLFSYAFNTKVVCMDQYKASTLEEEQLLLVVTSTFGNGDCPSNGQTLKKSLFMLRELNHTFRYAVFGLGSSMYPQFCAFAHDIDQKLSHLGASQLAPTGEGDELSGQEDAFRSWAVQTFRAACETFDVRSKHHIQIPKRFTSNATWEPQQYRLIQSPEPLDLNRALSSIHAKNVFTMRLKSQQNLQSEKSSRTTLLVQLTFEGSRGPSYLPGEHLGIFPGNQTALVQGILERVVDCPTPHQTVCLEVLDESGSYWVKDKRLPPCSLSQALTYFLDITTPPTQLQLHKLARFATDETDRQRLEALCQPSEYNDWKFSNNPTFLEVLEEFPSLHVPAAFLLSQLPILKPRYYSISSSQDHTPSEVHLTVAVVTYRTRDGQGPLHHGVCSTWIRNLKPQDPVPCFVRSVSGFQLPEDPSQPCILIGPGTGIAPFRSFWQQRLHDSQHKGLKGGRMSLVFGCRHPEEDHLYQEEMQEMVRKRVLFQVHTGYSRLPGKPKVYVQDILQKQLANEVLSVLHGEQGHLYICGDVRMARDVATTLKKLVATKLNLSEEQVEDYFFQLKSQKRYHEDIFGAVFSYGAKKGSALEEPKATRL
- interdomain electron transfer FMN to heme [1]: 35 s⁻¹

From article PMC3155652 (Journal of inorganic biochemistry, 2011)
